In patent US20130183418A1, “METHOD OF INHIBITION OF ENZYMATIC BROWNING IN FOOD USING A SULFINIC ACID COMPOUND” (UNIVERSITY OF FLORIDA RESEARCH FOUNDATION, INC., priority 2008, published 2013):

System: apple polyphenol oxidase
Assay: Polyphenol oxidase assay, color formation from catechol at 420 nm
Type: biochemical, Red Delicious apples
Conditions: for apple PPO activity: n=3, control 0.24±0.02; for Average % Inhibition of apple PPO: average ± standard deviation, n = 6
Method: Acetone powder containing apple polyphenol oxidase was prepared from Red Delicious apples. Cored and peeled apple pieces (200 g) were homogenized in a precooled blender along with 400 mL cold acetone (−20° C.) for 1 min and then filtered through Whatman No. 1 filter paper. The residue was extracted 3 times with 200 mL cold acetone and the resulting white powder was dried at room temperature, vacuum sealed in commercial plastic bags, and stored at −20° C. until needed. Crude PPO enzyme from the acetone powder was reconstituted in 0.1 M KH2PO4/Na2HPO4, pH 7.2 Containing 1% Triton X-100 (Bio-Rad Laboratories, Hercules, Calif.) using modified procedures of Murata et al. “Relationship between apple ripening and browning—changes in polyphenol content and polyphenol oxidase”, Journal of Agricultural and Food Chemistry 1995, 43 (5), 1115-21 and Yemenicioglu et al. “Heat inactivation kinetics of apple polyphenoloxidase and activation of its latent form”, Journal of Food Science 1997, 62 (3): 508-10. Acetone powder (1 g) was added to 50 mL of refrigerated 0.1 M KH2PO4/Na2HPO4, pH 7.2 buffer containing 1% TritonX-100 (Bio-Rad Laboratories, Hercules, Calif.) and the mixture was stirred for 20 min at 4° C. The suspension was centrifuged at 1200×g for 30 min, then filtered through glass wool and stored at −20° C. where it remained stable for at least 1 month.
A standard reaction mixture for evaluation of browning inhibition where the hypotaurine comprising solution was a mussel extract, consisted of 2.45 mL of 0.1 sodium acetate/acetic acid buffer, pH 5.5, 0.2 ml mussel extract (or additional pH 5.5 buffer for a control run for comparison), 0.3 mL of 0.5 M catechol (Sigma, St. Louis, Mo.) and 0.05 mL of enzyme extract. The percent inhibition was calculated with the following formula: I=100*(A-B)/A, where A and B are the greatest initial linear rate of the control and the test system respectively.
Polyphenol oxidase activity was measured by monitoring the increase in color (absorbance at 420 nm) in a reaction mixture with catechol as a substrate. […] From the data in FIG. 1, the inhibition of polyphenol oxidase by 90 ppm of hypotaurine was calculated to be 97 percent with a 30 fold decrease in the rate of browning. The mussel extract was employed in a similar manner and inhibition was calculated to be 93 percent with a 14 fold decrease in the rate of browning. […]

[1] = 90 ppm of hypotaurine, catechol substrate, FIG. 1

SMILES	apple PPO activity (67.5 μM)	apple PPO activity (250 μM)	apple PPO activity (500 μM)	inhibition of apple PPO (in words) (67.5 to 500 μM)	Average % Inhibition of apple PPO (67.5 μM) [%]	Average % Inhibition of apple PPO (250 μM) [%]	Average % Inhibition of apple PPO (500 μM) [%]	Average % Inhibition of apple PPO (500 μM, listed as hypotaurine) [%]	fold decrease in the rate of browning [1] [fold]	inhibition of polyphenol oxidase [1] [%]	Average % Inhibition of apple PPO (500 μM, listed as methane sulfinic acid) [%]
NCCS(=O)(=O)O [Taurine, reference compound]	0.23±0.04 ΔA420 nm/min	0.25±0.01 ΔA420 nm/min	0.23±0.01 ΔA420 nm/min	did not inhibit	–	–	–	–	–	–	–
NCCS(=O)O [Hypotaurine, 2-aminoethane sulfinic acid]	–	–	–	–	39.1 ± 4.48	80.0 ± 14.90	89.8 ± 7.65	89	30	97	–
CS(=O)O [Methane Sulfinic Acid, methane sulfinic acid]	–	–	–	–	33.7 ± 0.69	96.8 ± 0.69	99.8 ± 0.11	–	–	–	100
O=S(O)c1ccccc1 [Benzene Sulfinic Acid, benzene sulfinic acid]	–	–	–	–	20.9 ± 16.15	98.5 ± 1.28	100	–	–	–	–
